# Data reported in patent US9394329B2, “Glucopyranosyl derivatives and their uses in medicine” (Sunshine Lake Pharma Co., Ltd., priority 2013, dated 2016).
# Tests used:
# SGLT-2 = molecular target: T1, SGLT-2 (Homo sapiens, UniProt P31639); assay: SGLT-2 activity measurement ([14C]-AMG uptake in CHO cells expressing human SGLT2); type: cell-based; conditions: CHO cells expressing human SGLT2, 0.5 μm [14C]-AMG, 37° C. for 1 hour
# T1 construct: expressed in transfected cells
# T1 sequence (P31639 1-672): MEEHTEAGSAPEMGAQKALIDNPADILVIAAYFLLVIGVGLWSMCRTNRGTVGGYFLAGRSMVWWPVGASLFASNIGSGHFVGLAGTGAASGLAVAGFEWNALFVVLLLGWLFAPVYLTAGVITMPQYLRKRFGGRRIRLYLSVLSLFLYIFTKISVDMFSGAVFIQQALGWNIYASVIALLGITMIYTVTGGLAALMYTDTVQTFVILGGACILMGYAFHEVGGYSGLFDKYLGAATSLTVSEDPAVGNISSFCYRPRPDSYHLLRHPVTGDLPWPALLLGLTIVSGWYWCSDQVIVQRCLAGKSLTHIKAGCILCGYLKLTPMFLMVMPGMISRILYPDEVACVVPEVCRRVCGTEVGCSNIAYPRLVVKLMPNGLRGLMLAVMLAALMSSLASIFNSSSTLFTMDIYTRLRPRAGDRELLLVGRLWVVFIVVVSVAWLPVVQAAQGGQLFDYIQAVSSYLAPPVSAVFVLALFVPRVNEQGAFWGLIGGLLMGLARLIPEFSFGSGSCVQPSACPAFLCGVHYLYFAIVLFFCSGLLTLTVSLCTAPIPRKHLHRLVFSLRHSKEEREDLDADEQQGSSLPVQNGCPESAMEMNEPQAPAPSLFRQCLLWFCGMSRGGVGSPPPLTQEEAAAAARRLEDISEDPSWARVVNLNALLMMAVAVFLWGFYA
# From the text: (§1) The following methods can be used to determine the inhibitory activity of the compounds described in the invention for SGLT-1 and SGLT-2.
# (§2) ^14C-AMG solution was purchased from PerkinElmer, Cat. No. NEZ080001MC.
# (§3) α-Methylglucoside was purchased from Sigma, Cat. No. M9376-100G.
# (§4) N-methyl-D-glucosamine was purchased from Sigma, Cat. No. M2004-100G.
# (§5) Phloridzin was purchased from Sigma, Cat. No. P3449-1G.
# (§6) 96-Well plate was purchased from Corning, Cat. No. 3903.
# (§7) Mock-transfected FIP-in CHO cells (3×10^4 cells) and expressing human SGLT1/SGLT2 CHO cells were seeded into 96-well plates respectively. The cells were incubated for 12 hours. Each well of the 96-well plates was washed with 150 μL of sodium-free buffer once. To each well was added 50 μL of sodium-containing buffer containing test compounds having different concentrations and […] [^14C]-AMG. The incubation mixture was incubated at 37° C. for 1 hour. To each well was added 150 μL of precooled sodium-free buffer to terminate the reaction. The cell pellet was washed with sodium-free buffer three times and the residual liquid in well was removed. To each well was added 20 μL of precooled 100 mM NaOH. The 96-well plates were vibrated at 900 rpm for 5 minutes. Scintillation fluid (80 μL) was added to each well which was then vibrated at 600 rpm for 5 minutes. The amount of ^14C-AMG was quantitatively detected using liquid scintillation.
# SGLT-1 = molecular target: T2, SGLT-1 (Homo sapiens, UniProt P13866); assay: SGLT-1 activity measurement ([14C]-AMG uptake in CHO cells expressing human SGLT1); type: cell-based; conditions: CHO cells expressing human SGLT1, 0.5 μm [14C]-AMG, 37° C. for 1 hour
# T2 construct: expressed in transfected cells
# T2 sequence (P13866 1-664): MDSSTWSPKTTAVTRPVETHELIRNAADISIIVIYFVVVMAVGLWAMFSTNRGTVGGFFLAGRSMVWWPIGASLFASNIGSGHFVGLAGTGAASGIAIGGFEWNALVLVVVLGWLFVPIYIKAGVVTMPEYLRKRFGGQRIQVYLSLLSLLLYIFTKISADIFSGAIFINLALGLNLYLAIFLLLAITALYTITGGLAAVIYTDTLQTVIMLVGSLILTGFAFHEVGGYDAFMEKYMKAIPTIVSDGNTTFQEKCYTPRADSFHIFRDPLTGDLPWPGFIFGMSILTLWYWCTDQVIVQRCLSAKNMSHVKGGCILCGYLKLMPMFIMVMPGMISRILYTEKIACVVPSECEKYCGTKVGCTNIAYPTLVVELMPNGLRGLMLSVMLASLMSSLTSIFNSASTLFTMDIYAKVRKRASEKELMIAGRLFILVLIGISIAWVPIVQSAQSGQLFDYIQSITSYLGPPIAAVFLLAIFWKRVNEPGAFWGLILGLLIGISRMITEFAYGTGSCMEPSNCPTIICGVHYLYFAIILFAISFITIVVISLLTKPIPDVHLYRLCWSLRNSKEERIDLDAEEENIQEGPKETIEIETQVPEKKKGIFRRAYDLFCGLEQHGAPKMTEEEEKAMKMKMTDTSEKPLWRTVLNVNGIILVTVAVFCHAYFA
# From the text: as §1, §2, §3, §4, §5, §6, §7
SMILES,IC50 (SGLT-2) [nM],IC50 (SGLT-1) [nM]
"CCOc1ccc(Cc2cc([C@]34OCC(C(O)CC)(O3)[C@@H](O)[C@H](O)[C@H]4O)ccc2Cl)cc1 (stereo in doubt) [Example 3, (1S,2S,3S,4R,5S)-5-[4-Chloro-3 [(4-ethoxyphenyl)methyl]phenyl]-1-(1-hydroxypropyl)-6,8-dioxabicyclo[3.2.1]octane-2,3,4-triol]",9.8,–
"C#CC(O)C12CO[C@@](c3ccc(Cl)c(Cc4ccc(OCC)cc4)c3)(O1)[C@H](O)[C@@H](O)[C@@H]2O (stereo in doubt) [Example 4, (1S,2S,3S,4R,5S)-5-[4-Chloro-3 [(4-ethoxyphenyl)methyl]phenyl]-1-(1-hydroxyprop-2-yn-1-yl)-6,8-dioxabicyclo[3.2.1]octane-2,3,4-triol]",9.39,4210
"CCOc1ccc(Cc2cc([C@]34OC[C@](C5(O)CC5)(O3)[C@@H](O)[C@H](O)[C@H]4O)ccc2Cl)cc1 [Example 6, (1S,2S,3S,4R,5S)-5-[4-Chloro-3 [(4-ethoxyphenyl)methyl]phenyl]-1-(1-hydroxycyclopropyl)-6,8-dioxabicyclo[3.2.1]octane-2,3,4-triol]",3.6,26800
"CCOc1ccc(Cc2cc([C@]34OC[C@](C(O)CO)(O3)[C@@H](O)[C@H](O)[C@H]4O)ccc2Cl)cc1 (stereo partly drawn) [Example 7, (1R,2S,3S,4R,5S)-5-[4-Chloro-3-[(4-ethoxyphenyl)methyl]phenyl]-1-(1,2-dihydroxyethyl)-6,8-dioxabicyclo[3.2.1]octane-2,3,4-triol]",4.96,–
"CCOC(=O)OC(C)[C@@]12CO[C@@](c3ccc(Cl)c(Cc4ccc(OCC)cc4)c3)(O1)[C@H](O)[C@@H](O)[C@@H]2O (stereo partly drawn) [Example 12, 1-[(1S,2S,3S,4R,5S)-5-[4-Chloro-3-[(4-ethoxyphenyl)methyl]phenyl]-2,3,4-trihydroxy-6,8-dioxabicyclo[3.2.1]octan-1-yl]ethyl ethyl carbonate]",12.7,–
"CC(C)(O)[C@@]12CO[C@@](c3ccc(Cl)c(Cc4ccc(OC(F)(F)F)cc4)c3)(O1)[C@H](O)[C@@H](O)[C@@H]2O [Example 16, (1S,2S,3S,4R,5S)-5-[4-chloro-3-[[4-(trifluoromethoxy)phenyl]methyl]phenyl]-1-(1-hydroxy-1-methyl-ethyl)-6,8-dioxabicyclo[3.2.1]octane-2,3,4-triol]",2.95,1310
"CCOc1ccc(Cc2cc([C@]34OC[C@](C5CO5)(O3)[C@@H](O)[C@H](O)[C@H]4O)ccc2Cl)cc1 (stereo partly drawn) [Example 26, (1S,2S,3S,4R,5S)-5-[4-chloro-3-[(4-ethoxyphenyl)methyl]phenyl]-1-(oxiran-2-yl)-6,8-dioxabicyclo[3.2.1]octane-2,3,4-triol]",6.85,–
"CCOc1ccc(Cc2cc([C@]34OC[C@](C5CNC(=O)O5)(O3)[C@@H](O)[C@H](O)[C@H]4O)ccc2Cl)cc1 (stereo partly drawn) [Example 27, 5-((1S,2S,3S,4R,5S)-5-(4-Chloro-3-(4-ethoxybenzyl)phenyl)-2,3,4-trihydroxy-6,8-dioxabicyclo[3.2.1]octan-1-yl)oxazolidin-2-one]",13.8,–
"CCOc1ccc(C(O)c2cc([C@]34OC[C@](C(C)O)(O3)[C@@H](O)[C@H](O)[C@H]4O)ccc2Cl)cc1 (stereo partly drawn) [Example 29, (1R,2S,3S,4R,5S)-5-[4-chloro-3-[(4-ethoxyphenyl)-hydroxy-methyl]phenyl]-1-(1-hydroxyethyl)-6,8-dioxabicyclo[3.2.1]octane-2,3,4-triol]",1.46,–

# Other lines, results leading:
IC50 (SGLT-2) [nM],IC50 (SGLT-1) [nM],SMILES
1.65,260,"CCOc1ccc(Cc2cc([C@]34OC[C@](C(C)O)(O3)[C@@H](O)[C@H](O)[C@H]4O)ccc2Cl)cc1 (stereo partly drawn) [Example 1, (1R,2S,3S,4R,5S)-5-[4-Chloro-3-[(4-ethoxyphenyl)methyl]phenyl]-1-(1-hydroxyethyl)-6,8-dioxabicyclo[3.2.1]octane-2,3,4-triol]"
1.14,110,"CCOc1ccc(Cc2cc([C@]34OC[C@](C(C)(C)O)(O3)[C@@H](O)[C@H](O)[C@H]4O)ccc2Cl)cc1 [Example 2, (1S,2S,3S,4R,5S)-5-[4-Chloro-3-[(4-ethoxyphenyl)methyl]phenyl]-1-(2-hydroxypropan-2-yl)-6,8-dioxabicyclo[3.2.1]octane-2,3,4-triol]"
–,840,"CC#CC(O)[C@@]12CO[C@@](c3ccc(Cl)c(Cc4ccc(OCC)cc4)c3)(O1)[C@H](O)[C@@H](O)[C@@H]2O (stereo partly drawn) [Example 5, (1R,2S,3S,4R,5S)-5-[4-chloro-3 [(4-ethoxyphenyl)methyl]phenyl]-1-(1-hydroxybut-2-ynyl)-6,8-dioxabicyclo[3.2.1]octane-2,3,4-triol]"
51.8,–,"CCOc1ccc(Cc2cc([C@]34OC(C)[C@](CO)(O3)[C@@H](O)[C@H](O)[C@H]4O)ccc2Cl)cc1 (stereo partly drawn) [Example 8, (1R,2S,3S,4R,5S)-5-[4-Chloro-3-[(4-ethoxyphenyl)methyl]phenyl]-1-(hydroxymethyl)-7-methyl-6,8-dioxabicyclo[3.2.1]octane-2,3,4-triol]"
3730,–,"CCOc1ccc(Cc2cc([C@]34OC[C@](C(O)CN)(O3)[C@@H](O)[C@H](O)[C@H]4O)ccc2Cl)cc1 (stereo partly drawn) [Example 10, (1R,2S,3S,4R,5S)-1-(2-Amino-1-hydroxy-ethyl)-5-[4-chloro-3-[(4-ethoxyphenyl)methyl]phenyl]-6,8-dioxabicyclo[3.2.1]octane-2,3,4-triol]"
498,–,"CCOc1ccc(Cc2cc([C@]34OC[C@](C(O)CNC)(O3)[C@@H](O)[C@H](O)[C@H]4O)ccc2Cl)cc1 (stereo partly drawn) [Example 11, (1R,2S,3S,4R,5S)-5-[4-chloro-3-[(4-ethoxyphenyl)methyl]phenyl]-1-[1-hydroxy-2-(methylamino)ethyl]-6,8-dioxabicyclo[3.2.1]octane-2,3,4-triol]"
44.1,3760,"CCOc1ccc(Cc2cc([C@]34OC[C@](C(C)OC(=O)OC(C)C)(O3)[C@@H](O)[C@H](O)[C@H]4O)ccc2Cl)cc1 (stereo partly drawn) [Example 13, 1-[(1S,3S,4R,5S)-5-[4-Chloro-3-[(4-ethoxyphenyl)methyl]phenyl]-2,3,4-trihydroxy-6,8-dioxabicyclo[3.2.1]octan-1-yl]ethyl isopropyl carbonate]"
1.96,290,"CC(O)[C@@]12CO[C@@](c3ccc(Cl)c(Cc4ccc(OC(F)(F)F)cc4)c3)(O1)[C@H](O)[C@@H](O)[C@@H]2O (stereo partly drawn) [Example 15, (1R,2S,3S,4R,5S)-5-[4-chloro-3-[[4-(trifluoromethoxy)phenyl]methyl]phenyl]-1-(1-hydroxyethyl)-6,8-dioxabicyclo[3.2.1]octane-2,3,4-triol]"
2.19,–,"CCOc1ccc(Cc2cc([C@]34OC[C@](C(C)(C)O)(O3)[C@@H](O)[C@H](O)[C@H]4O)ccc2Cl)c(F)c1F [Example 24, (1S,2S,3S,4R,5S)-5-[4-Chloro-3-[(4-ethoxy-2,3-difluoro-phenyl)methyl]phenyl]-1-(1-hydroxy-1-methyl-ethyl)-6,8-dioxabicyclo[3.2.1]octane-2,3,4-triol]"
12.1,–,"CCOc1ccc(Cc2cccc([C@]34OC[C@](C(C)O)(O3)[C@@H](O)[C@H](O)[C@H]4O)c2)cc1 (stereo partly drawn) [Example 30, (1R,2S,3S,4R,5S)-5-[3-[(4-Ethoxyphenyl)methyl]phenyl]-1-(1-hydroxyethyl)-6,8-dioxabicyclo[3.2.1]octane-2,3,4-triol]"
